According to PubChem BioAssay (NCI):
Where “and” joins values, the source holds several entries; their conditions need not be identical. Equal values may be shown once.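 Interpolation was linear, between the two tested concentrations surrounding the appropriate level; five concentrations were tested over 48 hours in 96-well plates. Here, GI50 denotes the concentration required for 50% inhibition of growth. Definition used: TGI = concentration required for complete inhibition of growth.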

Tests used:
Experiment in all cases: DTP human tumour cell line panel, 48 h
HT29 colon = system: HT29 colon
NCI-H226 lung = system: NCI-H226 lung
RPMI-8226 leukemia = system: RPMI-8226 leukemia
SK-MEL-5 melanoma = system: SK-MEL-5 melanoma
SNB-19 CNS = system: SNB-19 CNS
SW-620 colon = system: SW-620 colon
UACC-62 melanoma = system: UACC-62 melanoma
ACHN renal = system: ACHN renal
NCI-H23 lung = system: NCI-H23 lung
TK-10 renal = system: TK-10 renal

Compound | GI50 (HT29 colon) | TGI (HT29 colon) | GI50 (NCI-H226 lung) | TGI (NCI-H226 lung) | GI50 (RPMI-8226 leukemia) [µM] | TGI (RPMI-8226 leukemia) | GI50 (SK-MEL-5 melanoma) | TGI (SK-MEL-5 melanoma) | GI50 (SNB-19 CNS) [µM] | TGI (SNB-19 CNS) [µM] | GI50 (SW-620 colon) | TGI (SW-620 colon) | GI50 (UACC-62 melanoma) [µM] | TGI (UACC-62 melanoma) | GI50 (ACHN renal) [µM] | TGI (ACHN renal) | GI50 (NCI-H23 lung) [µM] | TGI (NCI-H23 lung) [µM] | GI50 (TK-10 renal) | TGI (TK-10 renal)
COc1nc2c(cc1S(=O)(=O)c1ccccc1)CCc1c-2cnn1-c1ccccc1Cl | 4.73 µM | > 100 µM | 4.91 µM | > 100 µM | 5.39 | > 100 µM | 3.31 µM | > 100 µM | 7.25 | > 100 | > 100 µM | > 100 µM | 7.29 | > 100 µM |  |  |  |  |  | 
NS(=O)(=O)c1ccc(-n2nc(-c3ccc(Br)cc3)ccc2=O)cc1 | > 10 µM | > 10 µM | > 10 µM | > 10 µM | > 10 | > 10 µM | > 10 µM | > 10 µM | > 10 | > 10 | > 10 µM | > 10 µM | > 10 | > 10 µM | > 10 | > 10 µM | > 10 | > 10 | > 10 µM | > 10 µM
COc1ccc(/C=C(/C(=O)O)c2cc(OC)c(OC)c(OC)c2)cc1 |  | > 100 µM |  | > 100 µM |  | > 100 µM |  | > 100 µM |  | > 100 |  | > 100 µM |  | > 100 µM |  | > 100 µM |  | > 100 |  | 
COc1ccc(N=Cc2cc(OC)c(OC)c(OC)c2)cc1 |  | > 100 µM |  |  |  | 59.6 µM |  | > 100 µM |  | > 100 |  | 30 µM |  | > 100 µM |  | > 100 µM |  | > 100 |  | > 100 µM
COc1ccc(-n2cc(-c3ccc(OC)c(OC)c3)[nH]c2=S)cc1Cl | > 100 µM | > 100 µM | > 100 µM | > 100 µM | > 100 | > 100 µM | > 100 µM | > 100 µM | > 100 | > 100 | > 100 µM | > 100 µM | > 100 | > 100 µM | > 100 | > 100 µM | > 100 | > 100 | > 100 µM | > 100 µM
O=C1c2ccccc2-c2c1c1cc3c(cc1c(=O)n2CCCCl)OCO3 | > 100 µM | > 100 µM |  |  | 78.6 | > 100 µM | 33.5 µM | > 100 µM | > 100 | > 100 | 94.5 µM | > 100 µM | 30.5 | > 100 µM | 24.5 | 98.7 µM | 21.5 | 87.3 | 30.9 µM | 75.2 µM
COc1ccccc1NC(=O)c1ccc(/C=C/C(=O)c2nccn2C)cc1 | 0.644 µM | 1.78 µM | 0.588 µM | 1.69 µM | 0.429 | 1.46 µM | 0.648 µM | 1.68 µM | 0.553 | 1.59 | 0.473 µM | 1.22 µM | 0.472 | 0.986 µM | 0.532 | 1.09 µM | 0.561 | 1.5 | 0.811 µM | 9.53 µM
Cn1cc(C2=C(c3ccc(OC[C@@H](O)CO)cc3)C(=O)NC2=O)c2ccccc21 | > 25 µM | > 25 µM | > 25 µM | > 25 µM | > 25 | > 25 µM | > 25 µM | > 25 µM | > 25 | > 25 | > 25 µM | > 25 µM | > 25 | > 25 µM | > 25 | > 25 µM | > 25 | > 25 | > 25 µM | > 25 µM
C[Si](C)(C)c1ccc(CC2(Cc3ccc([Si](C)(C)C)cc3)CCNC2)cc1 |  | 4.08 µM |  | 3.34 µM |  |  |  | 3.35 µM |  | 13.7 |  | 3.38 µM |  | 3.96 µM |  | 9.37 µM |  | 3.47 |  | 35.5 µM
COC(=O)c1c(OC)cccc1C(=O)O |  | > 100 µM |  | > 100 µM |  | > 100 µM |  | > 100 µM |  | > 100 |  | > 100 µM |  | > 100 µM |  | > 100 µM |  | > 100 |  | > 100 µM
O=[N+]([O-])c1ccc(NSc2ccccc2)cc1 |  |  |  |  |  |  |  | > 100 µM |  | > 100 |  | > 100 µM |  | 55.7 µM |  | > 100 µM |  | > 100 |  | > 100 µM
O=c1[nH]c(=O)n(C2CC(O)C(CO)O2)cc1C#Cc1c(F)c(F)c(F)c(F)c1F (stereo not drawn) |  | > 100 µM |  | > 100 µM |  | > 100 µM |  | > 100 µM |  | > 100 |  | > 100 µM |  | > 100 µM |  | > 100 µM |  | > 100 |  | 
O=C(O)CCCc1ccc(N(CCCl)CCCl)cc1 | 19.9 µM and 173 µM | 59.3 µM and 486 µM and 518 µM | 16.1 µM and 120 µM | 42.4 µM and 276 µM and 362 µM | 13 | 81.1 µM and 447 µM and 335 µM | 20.3 µM and 110 µM | 39.5 µM and 210 µM and 225 µM |  |  | 13.8 µM and 107 µM | 51.4 µM and 356 µM and 399 µM |  | 23.1 µM and 106 µM and 202 µM | 4.21 | 30.3 µM and 180 µM |  |  | 25.4 µM and 81.4 µM | 70.8 µM and 471 µM and 221 µM
ClCc1ccccc1CSc1ncnc2nc[nH]c12 | > 60 µM | > 60 µM | > 60 µM | > 60 µM | > 60 | > 60 µM | > 60 µM | > 60 µM | > 60 | > 60 | > 60 µM | > 60 µM | > 60 | > 60 µM | > 60 | > 60 µM | > 60 | > 60 |  | 
O=C1CC[C@H]2CNC(=O)C[C@H]2C1 |  | > 100 µM |  |  |  | > 100 µM |  | > 100 µM |  | > 100 |  | > 100 µM |  | > 100 µM |  |  |  | > 100 |  | > 100 µM
CC(=O)OCCc1cccnc1/C=N/O |  | > 100 µM |  | > 100 µM |  |  |  | > 100 µM |  | > 100 |  | > 100 µM |  | > 100 µM |  | > 100 µM |  | > 100 |  | > 100 µM
Clc1ccc(Cc2nc3cc4ccccc4cc3[nH]2)cc1 |  |  | 30.1 µM | > 100 µM | 9.77 | > 100 µM | 3.17 µM | > 100 µM | 20 | > 100 | 6.55 µM | > 100 µM | 73.5 | > 100 µM | 18.8 | 57.7 µM | 28.8 | > 100 | 10.6 µM | 38.4 µM
